The source made the active and inactive calls. No cut-off for these calls is given here.
What was measured:
Calf thymus DNA [1] = test: Binding affinity to calf thymus DNA assessed as melting temperature at 30 uM by thermal denaturation assay; type: nucleic-acid assay; details: Bos taurus
[2] = Cytotoxicity against human KATO III cells after 3 days by MTT assay; type: functional, cell-based, KATO III cell; details: 72 h
HepG2 [3] = test: Cytotoxicity against human HepG2 cells after 3 days by MTT assay; type: functional, cell-based; details: HepG2, 72 h
SW-620 [4] = test: Cytotoxicity against human SW620 cells after 3 days by MTT assay; type: functional, cell-based; details: SW-620, 72 h
Bos taurus [5] = species: Bos taurus; test: Displacement of ethidium bromide from calf thymus DNA by fluorescence spectroscopic analysis
[6] = Cytotoxicity against human CaSki cells after 3 days by MTT assay; type: functional, cell-based; details: Ca-Ski, 72 h
WI-38 = test: Cytotoxicity against human WI38 cells at 1 to 60 uM after 3 days by MTT assay; type: cell-based; details: wi-38, 72 h
Bos taurus [7] = species: Bos taurus; test: Displacement of ethidium bromide from calf thymus DNA by Stern-Volmer plot analysis
[8] = Cytotoxicity against human ChaGo cells after 3 days by MTT assay; type: functional, cell-based; details: 72 h
BT-474 [9] = test: Cytotoxicity against human BT474 cells assessed as cell viability at 100 uM after 3 days by MTT assay relative to control; type: functional; details: for viability at 100 µM: BT-474, 72 h, read-out: Activity
[10] = target: DNA topoisomerase 2-alpha (Homo sapiens) (UniProt P11388); test: Inhibition of human DNA topoisomerase-2-mediated decatenation of kinetoplast DNA at 100 uM after 1 hr by electrophoretic analysis relative to control
Chain of DNA topoisomerase 2-alpha (Homo sapiens) (P11388 whole entry): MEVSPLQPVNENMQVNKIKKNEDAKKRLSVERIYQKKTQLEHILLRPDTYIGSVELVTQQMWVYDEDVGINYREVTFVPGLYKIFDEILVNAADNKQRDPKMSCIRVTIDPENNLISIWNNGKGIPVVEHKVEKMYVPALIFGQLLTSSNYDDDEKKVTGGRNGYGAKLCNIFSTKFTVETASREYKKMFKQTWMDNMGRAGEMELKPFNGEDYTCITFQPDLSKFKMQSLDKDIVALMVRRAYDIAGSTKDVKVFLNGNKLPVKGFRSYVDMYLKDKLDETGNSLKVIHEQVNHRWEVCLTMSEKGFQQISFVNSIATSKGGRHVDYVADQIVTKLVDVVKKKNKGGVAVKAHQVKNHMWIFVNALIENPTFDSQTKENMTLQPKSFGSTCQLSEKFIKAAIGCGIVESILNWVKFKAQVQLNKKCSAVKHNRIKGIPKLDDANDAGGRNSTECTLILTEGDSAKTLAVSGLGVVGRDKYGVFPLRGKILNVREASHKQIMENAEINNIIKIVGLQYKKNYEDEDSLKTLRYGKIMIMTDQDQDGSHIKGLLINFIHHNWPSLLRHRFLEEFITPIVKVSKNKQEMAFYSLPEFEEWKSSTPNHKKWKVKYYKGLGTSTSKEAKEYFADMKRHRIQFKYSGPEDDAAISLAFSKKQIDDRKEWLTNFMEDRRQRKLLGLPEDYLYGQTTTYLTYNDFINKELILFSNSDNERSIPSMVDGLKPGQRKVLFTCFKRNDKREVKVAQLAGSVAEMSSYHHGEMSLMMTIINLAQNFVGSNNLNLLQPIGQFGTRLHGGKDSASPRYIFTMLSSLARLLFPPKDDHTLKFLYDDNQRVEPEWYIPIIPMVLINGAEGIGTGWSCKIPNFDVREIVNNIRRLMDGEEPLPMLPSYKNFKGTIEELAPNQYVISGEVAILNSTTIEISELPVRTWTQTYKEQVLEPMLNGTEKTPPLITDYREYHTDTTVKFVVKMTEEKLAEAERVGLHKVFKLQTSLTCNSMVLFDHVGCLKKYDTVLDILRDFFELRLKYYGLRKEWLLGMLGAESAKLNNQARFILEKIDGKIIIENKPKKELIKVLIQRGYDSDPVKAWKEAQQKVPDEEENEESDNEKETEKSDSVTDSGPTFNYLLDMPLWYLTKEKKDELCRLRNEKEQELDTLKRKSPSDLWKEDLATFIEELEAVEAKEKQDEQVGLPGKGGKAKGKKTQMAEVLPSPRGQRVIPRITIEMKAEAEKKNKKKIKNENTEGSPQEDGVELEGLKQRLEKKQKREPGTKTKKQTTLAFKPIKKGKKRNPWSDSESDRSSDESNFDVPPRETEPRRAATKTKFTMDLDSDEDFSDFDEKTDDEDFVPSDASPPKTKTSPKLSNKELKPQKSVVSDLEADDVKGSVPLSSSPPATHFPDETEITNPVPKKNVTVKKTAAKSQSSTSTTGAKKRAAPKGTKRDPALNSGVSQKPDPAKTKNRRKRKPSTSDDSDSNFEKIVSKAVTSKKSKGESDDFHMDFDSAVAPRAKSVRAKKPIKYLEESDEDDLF

Calf thymus DNA [11] = test: Binding affinity to calf thymus DNA assessed as change in melting temperature at 30 uM by thermal denaturation assay; type: nucleic-acid assay; details: Bos taurus
Ca-Ski = test: (§1) Cytotoxicity against human CaSki cells assessed as cell viability at 100 uM after 3 days by MTT assay relative to control; type: functional
ChaGo = test: (§2) Cytotoxicity against human ChaGo cells assessed as cell viability at 100 uM after 3 days by MTT assay relative to control; type: functional
SW-620 [12] = test: Cytotoxicity against human SW620 cells assessed as cell viability at 100 uM after 3 days by MTT assay relative to control; type: functional; details: for viability at 100 µM: SW-620, 72 h, read-out: Activity
HepG2 [13] = test: Cytotoxicity against human HepG2 cells assessed as cell viability at 100 uM after 3 days by MTT assay relative to control; type: functional; details: for viability at 100 µM: HepG2, 72 h, read-out: Activity
KATO III cell = test: (§3) Cytotoxicity against human KATO III cells assessed as cell viability at 100 uM after 3 days by MTT assay relative to control; type: functional
[14] = as §1; type: functional; details: Ca-Ski, 72 h, read-out: Activity
[15] = as §2; type: functional; details: 72 h, read-out: Activity
[16] = as §3; type: functional; details: 72 h, read-out: Activity
BT-474 [17] = test: Cytotoxicity against human BT474 cells after 3 days by MTT assay; type: functional, cell-based; details: BT-474, 72 h
[18] = target: DNA topoisomerase 2-alpha (Homo sapiens) (UniProt P11388); test: Inhibition of human DNA topoisomerase-2-mediated decatenation of kinetoplast DNA at 10 uM after 1 hr by electrophoretic analysis relative to control
[19] = target: DNA topoisomerase 2-alpha (Homo sapiens) (UniProt P11388); test: Inhibition of human DNA topoisomerase-2-mediated decatenation of kinetoplast DNA at 50 uM after 1 hr by electrophoretic analysis relative to control
[20] = target: DNA topoisomerase 2-alpha (Homo sapiens) (UniProt P11388); test: Inhibition of human DNA topoisomerase-2-mediated decatenation of kinetoplast DNA at 30 uM after 1 hr by electrophoretic analysis relative to control

Tm (Calf thymus DNA [1]) | SMILES | Activity (Ca-Ski) | Activity (ChaGo) | Activity (SW-620 [12]) | Activity (HepG2 [13]) | Activity (KATO III cell) | Activity (BT-474 [9]) | further results
> 86 °C | CC1=Cc2nc(C)cc3cc(OCCN(C)C)cc(c23)O1 |  |  |  |  |  |  | IC50 [2]: 9.82 µM; IC50 (HepG2 [3]): 10.1 µM; IC50 (SW-620 [4]): 9.85 µM; Kapp (Bos taurus [5]): 2.1 ×10⁶ /M; IC50 [6]: 30.2 µM; Activity (WI-38): Non-toxic; KSV (Bos taurus [7]): 2.1 ×10⁴ /M; IC50 [8]: 29.5 µM; viability at 100 µM (BT-474 [9]): > 20%; inhibition [10]: 30.1%; ΔTm (Calf thymus DNA [11]): > 15.3 °C
 | CCCCC(=O)Oc1cc2c3c(nc(C)cc3c1)C=C(C)O2 | inactive | inactive | inactive | inactive | inactive | inactive | 
 | CC1=Cc2nc(C)cc3cc(OC(=O)c4ccc(C)cc4)cc(c23)O1 | inactive | inactive | inactive | inactive | inactive | inactive | 
75.7 °C | CC1=Cc2nc(C)cc3cc(OCCOCCO)cc(c23)O1 |  |  |  |  |  |  | viability at 100 µM [14]: > 20%; viability at 100 µM [15]: > 20%; IC50 [2]: 10.1 µM; viability at 100 µM (SW-620 [12]): > 20%; IC50 (HepG2 [3]): 29.8 µM; Activity (WI-38): Non-toxic; KSV (Bos taurus [7]): 4.3 ×10³ /M; viability at 100 µM (BT-474 [9]): > 20%; inhibition [10]: inactive; ΔTm (Calf thymus DNA [11]): 4.8 °C
 | CCCC(=O)Oc1cc2c3c(nc(C)cc3c1)C=C(C)O2 | inactive | inactive | inactive | inactive | inactive | inactive | 
 | CC1=Cc2nc(C)cc3cc(OC(=O)c4ccc([N+](=O)[O-])cc4)cc(c23)O1 | inactive | inactive | inactive | inactive | inactive | inactive | 
70.7 °C | CC1=Cc2nc(C)cc3cc(O)cc(c23)O1 [CASSIARIN A] |  |  |  |  |  |  | viability at 100 µM [14]: > 20%; viability at 100 µM [15]: > 20%; viability at 100 µM (SW-620 [12]): > 20%; viability at 100 µM (HepG2 [13]): > 20%; viability at 100 µM [16]: > 20%; viability at 100 µM (BT-474 [9]): > 20%
 | CC1=Cc2nc(C)cc3cc(OC(=O)CCCBr)cc(c23)O1 | inactive | inactive | inactive | inactive | inactive | inactive | 
 | CC1=Cc2nc(C)cc3cc(OC(=O)c4ccc(F)cc4)cc(c23)O1 | inactive | inactive | inactive | inactive | inactive | inactive | 
 | CC1=Cc2nc(C)cc3cc(OC(=O)c4ccc(Cl)cc4)cc(c23)O1 | inactive | inactive | inactive | inactive | inactive | inactive | 
 | CCC(=O)Oc1cc2c3c(nc(C)cc3c1)C=C(C)O2 | inactive | inactive | inactive | inactive | inactive | inactive | 
 | CC1=Cc2nc(C)cc3cc(OCCO)cc(c23)O1 | inactive | inactive | inactive | inactive | inactive | inactive | 

SMILES | Tm (Calf thymus DNA [1]) | Activity (Ca-Ski) | Activity (ChaGo) | Activity (SW-620 [12]) | Activity (HepG2 [13]) | Activity (KATO III cell) | Activity (BT-474 [9]) | further results
CN(C)CCN1C(=O)c2cccc3cc(N)cc(c23)C1=O [AMONAFIDE] | 78.9 °C |  |  |  |  |  |  | IC50 [2]: 9.24 µM; IC50 (HepG2 [3]): 1.71 µM; IC50 (SW-620 [4]): 0.32 µM; IC50 [6]: 9.96 µM; Activity (WI-38): Toxic; IC50 (BT-474 [17]): 37.8 µM; IC50 [8]: 1.05 µM; inhibition [10]: 61.8%; ΔTm (Calf thymus DNA [11]): 8.2 °C
CC1=Cc2nc(C)cc3cc(O[Se]c4ccccc4)cc(c23)O1 | 70 °C |  |  |  |  |  |  | viability at 100 µM [15]: > 20%; inhibition [18]: 31.5%; viability at 100 µM (SW-620 [12]): > 20%; IC50 [6]: 29.7 µM; inhibition [19]: 95.7%; Activity (WI-38): Non-toxic; viability at 100 µM (HepG2 [13]): > 20%; viability at 100 µM [16]: > 20%; viability at 100 µM (BT-474 [9]): > 20%; inhibition [20]: 75.7%; inhibition [10]: > 95%

From ChEMBL document CHEMBL3286110, “Synthesis, cytotoxicity, DNA binding and topoisomerase II inhibition of cassiarin A derivatives” (Bioorg Med Chem Lett, 2014)
